In paper PMC7730549, “Design, Synthesis and Evaluation of New Bioactive Oxadiazole Derivatives as Anticancer Agents Targeting Bcl-2” (International Journal of Molecular Sciences, 2020):

Columns and labels:
[1] = test system: MDA-MB-231 (metastatic breast) cells; assay: MTT anti-proliferative assay, MDA-MB-231; format: cell-based, human; settings: Bcl-2 expressing, mean of three independent experiments ±SEM
Description: (§1) Evaluation of anti-proliferative activity for the new 2-(1H-indol-3-yl)-5-substituted-1,3,4-oxadiazoles (4a–m) was carried out in Bcl-2-expressing human metastatic breast (MDA-MB-231) and cervical (HeLa) cancer cell lines, using the MTT endpoint assay, following 72 h incubation of test compound, according to previously established protocols. Further analysis within the non-adherent leukemic cell lines KG1a (acute myelogenous leukemia, Bcl-2 +ve) and Jurkat (T-cell leukemia, Bcl-2 −ve,) was carried out by using the CellTiter-Blue® assay according to published precedent.
(§2) Human breast cancer (MDA-MB-231) and cervical cancer (HeLa) cells, obtained from the ATCC (Manassas, VA, USA), were cultured and maintained as previously described. For each experiment, 3000 cells in 0.2 mL of medium were seeded into each well of a clear flat-bottomed 96-well plate and allowed to adhere for 24 h. The cells were then incubated with the test compound (from 10 mM stock in DMSO), over a 10-fold dilution series, with concentrations ranging from 0.00001 to 100 μM and each diluent being performed in triplicate. Cells were incubated with the test compound for 72 h, followed by treatment with 3-[4,5-dimethylthiazol-2-yl]-2,5-diphenyl tetrazolium bromide (MTT) solution and reading of absorbance (automated microplate) according to our previous protocol. Mean IC50 values were obtained by using GraphPad Prism 5 software (San Diego, CA, USA). For each concentration, three independent repeat experiments were carried out to establish reproducibility.

[2] = test system: Jurkat (T-cell leukemia) cells; assay: CellTiter-Blue cell viability assay, Jurkat; format: cell-based, human; settings: for IC50: CellTitre-Blue assay, 24 h incubation, Bcl-2 −ve, mean of three independent experiments ±SEM
Description: as §1
(§3) Human acute myeloid leukemia KG1a and acute T-cell lymphocytic Jurkat cells were cultured and maintained as previously described. For each experiment 15,000 cells in 0.1 mL of medium were seeded into each well of a solid-black fluorescence 96-well plate and incubated for 24 h. The cells were then incubated with test compound (from 10 mM stock in DMSO), over a 10-fold dilution series, with concentrations ranging from 0.00001 to 100 μM and each diluent being performed in triplicate. Cells were incubated with test compound for 24 h, followed by treatment with CellTiter-Blue® solution and reading of fluorescence according to our previous protocol. Mean IC50 values were obtained by using GraphPad Prism 5 software (San Diego, CA, USA). For each concentration, three independent repeat experiments were carried out, to establish reproducibility.

[3] = test system: KG1a (AML) cells; assay: CellTiter-Blue cell viability assay, KG1a; format: cell-based, human; settings: CellTitre-Blue assay, 24 h incubation, Bcl-2 +ve, mean of three independent experiments ±SEM
Description: as §1, §3

[4] = test system: HeLa (cervical) cells; assay: MTT anti-proliferative assay, HeLa; format: cell-based, human; settings: 72 h incubation, Bcl-2 expressing, mean of three independent experiments ±SEM
Description: as §1, §2

[5] = biological target: His-tagged Bcl-2 protein (Homo sapiens, UniProt P10415); assay: Competitive Bcl-2 ELISA binding assay (Bim peptide / His-tagged Bcl-2); settings: for IC50: competition with biotinylated Bim peptide for His-tagged Bcl-2, mean ± SEM of three independent experiments; for Bcl-2 binding activity in the ELISA assay: competitive ELISA, Bim peptide
Chain of His-tagged Bcl-2 protein (P10415 whole entry, the tested form may be a part): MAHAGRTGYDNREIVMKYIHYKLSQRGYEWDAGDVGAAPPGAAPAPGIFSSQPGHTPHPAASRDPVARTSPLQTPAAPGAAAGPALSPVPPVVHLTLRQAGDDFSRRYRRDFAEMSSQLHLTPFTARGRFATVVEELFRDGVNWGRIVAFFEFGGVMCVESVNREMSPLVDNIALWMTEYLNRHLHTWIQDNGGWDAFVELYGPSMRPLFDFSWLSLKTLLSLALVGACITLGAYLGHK
Description: Compounds were evaluated according to their ability to compete with the pro-apoptotic BH3 domain Bim peptide for binding to His-tagged Bcl-2 protein, with a readout from anti-His secondary antibody conjugated to HRP (horseradish peroxidase) enzyme that produces a colorimetric readout in the presence of o-phenylenediamine (competitive ELISA assay).
The ELISA assay to determine the ability of test compounds (10-fold dilution series) to compete with the interaction between biotinylated Bim peptide and His-tagged Bcl-2 protein was carried out according to our previously published protocol. The addition of anti-His antibody containing horseradish peroxidase enzyme, followed by the addition of o-phenylenediamine and hydrogen peroxide, allowed for the determination of optical density, using a plate reader (450 nm). The experiments were carried out on three separate occasions, including both negative and positive controls. A plot of log μM concentration for each inhibitor against the percentage reduction in affinity for the Bim peptide was created, using non-linear regression curve analysis (GraphPad Prism 5, San Diego, CA, USA) and the software used to generate the IC50 value for the Bcl-2 inhibitor.

[6] = test system: Bcl-2 expressing cell lines (MDA-MB-231, HeLa and KG1a); assay: Anti-proliferative activity across Bcl-2 expressing cell lines (MDA-MB-231, HeLa, KG1a); format: cell-based; settings: Homo sapiens; MDA-MB-231, HeLa and KG1a taken together; read-out: IC50 values against Bcl-2 expressing cell lines
Description: as §1
Human breast cancer (MDA-MB-231) and cervical cancer (HeLa) cells, obtained from the ATCC (Manassas, VA, USA), were cultured and maintained as previously described. […] Cells were incubated with the test compound for 72 h, followed by treatment with 3-[4,5-dimethylthiazol-2-yl]-2,5-diphenyl tetrazolium bromide (MTT) solution and reading of absorbance (automated microplate) according to our previous protocol. […]
Human acute myeloid leukemia KG1a and acute T-cell lymphocytic Jurkat cells were cultured and maintained as previously described. For each experiment 15,000 cells in 0.1 mL of medium were seeded into each well of a solid-black fluorescence 96-well plate and incubated for 24 h. […]

[7] = Homo sapiens, MDA-MB-231, 72 h incubation

Row | Compound | IC50 [1, 7] [nM] | IC50 ([2]; Homo sapiens, Jurkat) [nM] | IC50 ([3]; Homo sapiens, KG-1a) [nM] | IC50 ([4]; Homo sapiens, HeLa) [nM] | IC50 [5] [nM] | Bcl-2 binding activity in the ELISA assay [5] | melting point [°C] | IC50 [6] [nM] | inhibitory effect in the Bcl-2 negative cell line ([2]; Jurkat, Bcl-2 negative) | binding potency relative to positive control gossypol ([5]; Bcl-2 ELISA binding affinity assay) | IC50 ([1]; 72 h incubation) [nM] | IC50 [2] [nM] | IC50 [3] [nM] | IC50 [4] [nM]
1 | COc1cc(-c2nnc(-c3c[nH]c4ccccc34)o2)cc(OC)c1OC [Compound 4i, 2-(1H-Indol-3-yl)-5-(3,4,5-trimethoxyphenyl)-1,3,4-oxadiazole] | 1190 ± 100 | 12200 ± 1130 | 975 ± 20 | 1220 ± 900 | 21000 ± 1090 | only moderate Bcl-2 binding activity | 221 to 222 |  |  |  |  |  |  | 
2 | CC(C)(C)c1ccc(OCc2nnc(-c3c[nH]c4ccccc34)o2)cc1 [Compound 4c, 2-(1H-Indol-3-yl)-5-(4-tert-butylphenoxymethyl)-1,3,4-oxadiazole] | 3500 ± 160 | > 100000 | 3450 ± 800 | 900 ± 30 | 1170 ± 130 |  | 218 to 220 |  |  |  |  |  |  | 
3 | FC(F)(F)c1ccc(-c2nnc(-c3c[nH]c4ccccc34)o2)cc1 [Compound 4j, 2-(1H-Indol-3-yl)-5-(4-trifluoromethylphenyl)-1,3,4-oxadiazole] | 520 ± 150 | > 100000 | 730 ± 90 | 880 ± 160 | 330 ± 50 |  | 224 to 226 | 520 to 880 | no inhibitory effects | two-fold more potent |  |  |  | 
4 | COc1ccc(-c2nnc(-c3c[nH]c4ccccc34)o2)cc1 [Compound 4h, 2-(1H-Indol-3-yl)-5-(4-methoxyphenyl)-1,3,4-oxadiazole] | 6020 ± 120 | 60590 ± 120 | 2210 ± 100 | 920 ± 80 |  |  | 210 to 212 |  |  |  |  |  |  | 
5 | 2-(1H-Indol-3-yl)-5-(5-methoxy-1H-indol-2-yl)-1,3,4-oxadiazole [Compound 4m] |  |  |  |  | 840 ± 50 |  |  |  |  |  | 1790 ± 70 | 57400 ± 580 | 1870 ± 140 | 1190 ± 400
6 | c1ccc2c(-c3nnc(-c4ccc(N5CCCCC5)nc4)o3)c[nH]c2c1 [Compound 4l, 2-(1H-Indol-3-yl)-5-(6-(piperidin-1-yl)-pyridin-3-yl)-1,3,4-oxadiazole] | 2970 ± 60 | 61400 ± 1400 | 4500 ± 310 | 1520 ± 30 |  |  | 240 to 242 |  |  |  |  |  |  | 
7 | Fc1ccc(OCc2nnc(-c3c[nH]c4ccccc34)o2)cc1 [Compound 4a, 2-(1H-Indol-3-yl)-5-(4-fluorophenoxymethyl)-1,3,4-oxadiazole] | 36100 ± 3400 | > 100000 | > 100000 | 12900 ± 1330 |  |  | 210 to 212 |  |  |  |  |  |  | 
8 | Cc1ccc(-c2nnc(-c3c[nH]c4ccccc34)o2)cc1 [Compound 4k, 2-(1H-Indol-3-yl)-5-(4-methylphenyl)-1,3,4-oxadiazole] | 920 ± 190 | > 100000 | 1470 ± 130 | 1280 ± 350 | 430 ± 50 |  | 198 to 200 |  |  |  |  |  |  | 
9 | O=[N+]([O-])c1ccc(-c2nnc(-c3c[nH]c4ccccc34)o2)cc1 [Compound 4g, 2-(1H-Indol-3-yl)-5-(4-nitrophenyl)-1,3,4-oxadiazole] | 6950 ± 500 | > 100000 | > 100000 | 1600 ± 120 |  |  | 215 to 217 |  |  |  |  |  |  | 
10 | Cc1ccc(OCc2nnc(-c3c[nH]c4ccccc34)o2)cc1 [Compound 4b, 2-(1H-Indol-3-yl)-5-(4-methylphenoxymethyl)-1,3,4-oxadiazole] | 31500 ± 4800 | > 100000 | > 100000 | 13300 ± 320 | > 100000 | inactive | 201 to 203 |  |  |  |  |  |  | 
11 | c1ccc(Cc2nnc(-c3c[nH]c4ccccc34)o2)cc1 [Compound 4f, 2-(1H-Indol-3-yl)-5-benzyl-1,3,4-oxadiazole] | > 100000 | > 100000 | > 100000 | > 100000 |  |  | 187 to 189 |  |  |  |  |  |  | 
12 | c1ccc(OCc2nnc(-c3c[nH]c4ccccc34)o2)cc1 [Compound 4d, 2-(1H-Indol-3-yl)-5-(phenoxymethyl)-1,3,4-oxadiazole] | 1630 ± 80 | > 100000 | 2560 ± 70 | 570 ± 40 | 1410 ± 10 |  | 195 to 197 |  |  |  |  |  |  | 
13 | COc1cccc(Cc2nnc(-c3c[nH]c4ccccc34)o2)c1 [Compound 4e, 2-(1H-Indol-3-yl)-5-(3-methoxybenzyl)-1,3,4-oxadiazole] | 6280 ± 200 | > 100000 | 3660 ± 150 | 3140 ± 140 | 2720 ± 200 |  | 208 to 210 |  |  |  |  |  |  | 
